Source: patent US10704076B2, “Multi-tiered high through-put screen for compounds effective against bacterial biofilm and compounds effective for inhibiting and eradicating bacterial biofilm” (University of Cincinnati, priority 2013, dated 2020)
Converted amounts (≈) assume the structure as drawn.

Legend:
S. epidermidis = test: HTS total bacterial growth assay (optical density OD560); format: cell-based; conditions: Staphylococcus epidermidis, dose-response, read-out: Total Bacteria Growth AC50
Text: Each HTS tier consisted of: (i) primary screening, (ii) confirmation screening and (iii) dose-response curve screening. Each tier of HTS included three distinct biological process assays. The first assay was an optical density measurement of bacteria growth in the presence of each compound reported as a total bacteria growth. In the second assay, resazurin solution was used as an indicator of metabolic activity to measure the live bacteria in the biofilms, reported as live biofilm. The final assay was crystal violet staining, which indicated the amount of biofilm formation and the effect of each compound on this process, reported as total biofilm formation.
Briefly, stationary phase bacteria grown in L-broth were diluted 1:200 into fresh L-broth and 50 μM of each test compound. After 20-24 hours, the optical density (OD560) of each suspension was measured using Zeiss Plate::Vision with a 560 BP filter (560 nm, 2.5% light intensity, 1 mm focus to bottom of plate, and exposure time of 100 ms). To measure bacterial viability in the biofilm, 50 μl of a 5 mg/ml resazurin solution in L-broth was added to each well after washing 3 times with 50 μl of PBS. The plates were then incubated at 37° C. for 30 or 180 min for A. baumannii and P. aeruginosa biofilms, respectively. Fluorescence was measured using Zeiss Plate::Vision at excitation and emission wavelengths of 535 and 580 nm, 100 ms exposure time, 2.5% intensity and a 2 mm focus to the bottom of the biofilms. To assess biofilm formation, plates were washed 3 times with PBS and then 50 μl of 0.01% of crystal violet was added to each well to assess bacterial biofilm formation as described in a similar borosilicate tube assay by O'Toole and Kolter. After incubation at room temperature for 30 min and removal of the crystal violet solution by washing with PBS, 95% ethanol was added to solubilize the crystal violet followed by incubation for 20 min at room temperature. Finally, the optical density of each plate was determined using measured by Zeiss Plate::Vision using the same settings used to measure total bacterial growth. These 3 steps were used in each of the three tiers for the HTS process: (i) single point primary screening at 10 μM, (ii) triplicate confirmation of hits from (i) at 10 μM and (iii) determination of AC50 values in 10 point dose-response at a concentration range of 0.1-50 μM) in hits from (ii). The AC50 represents the concentration of compound that inhibits 50% of bacterial growth, bacterial viability, or biofilm formation. Genedata Screener® Assay Analyzer Software (Ver. 9.0.0 Standard) was used to analyze data from all assay tiers. Compounds with an AC50 of less than 20 μM in one of the biological assays from the dose response screen were subject to additional investigation.

A. baumannii = test: MIC determination (CLSI, Mueller Hinton broth), planktonic cultures; format: cell-based, Acinetobacter baumannii; conditions: MH, Aerobic; for MIC: Acinetobacter baumannii, read-out: Minimum Inhibition Concentration
Experimental: A standard protocol for determining the MIC of a specific compound as outlined by the Clinical and Laboratory Standards Institute (CLSI) was used, based on growth of the selected bacteria in Mueller Hinton (MH) broth with subsequent 2-fold dilutions of compounds of interest. Following the CLSI protocols, the MIC of each broad spectrum “hit” compound was performed in all 3 bacterial species in both aerobic and anaerobic conditions. All bacteria were grown in MH broth for 18 hrs at 37° C. The cells were then diluted 100-fold into MH broth containing compounds at concentrations ranging from 0.40-50 μM in the presence of either KNO3 or glucose to allow bacterial growth under anaerobic condition. After 24 hrs of incubation, cell growth was measured at OD600 using a SpectraMax 190 Absorbance Microplate Reader.
The HTS and CLSM assays identified and confirmed compounds that can inhibit biofilms formation in aerobic growth conditions. However, P. aeruginosa and S. epidermidis are capable of growth under anaerobic as well as aerobic conditions. […] The Minimal Inhibitory Concentrations (MIC) of the four broad agent hit compounds under both aerobic and anaerobic conditions of planktonic P. aeruginosa and S. epidermidis cultures were determined to evaluate compound efficacy in different growth conditions. The MICs for A. baumannii were determined only in aerobic conditions. To examine growth in aerobic conditions, bacteria were grown in either Mueller Hinton (MH) media only, MH media in the presence of 1% KNO3, or MH in the presence of 1% glucose. For MIC determinations under anaerobic conditions, growth was examined in MH media with 1% KNO3 or with 1% glucose.

| MIC (A. baumannii) | SMILES | AC50 (S. epidermidis) | Minimum Inhibition Concentration (A. baumannii) |
| --- | --- | --- | --- |
| 5 to 6 µM (≈ 1.71 to 2.05 µg/mL) | O=C(O)c1cn(C2CC2)c2c(F)c(-c3ccncc3)c(F)cc2c1=O [Compound 11, 7-(4-pyridyl)-1-cyclopropyl-6,8-difluoro-4-oxoquinoline-3-carboxylic acid] | < 100 nM | 5.12 ± 1.04 µM |
| 5 to 6 µM (≈ 0.873 to 1.05 µg/mL) | Cn1sc(Cl)c(C#N)c1=O [Compound 3, 5-chloro-2-methyl-3-oxo-1,2-thiazole-4-carbonitrile] | 8890 nM | 6.25 ± 2.21 µM |
| ~1 µM (≈ 0.336 µg/mL) | O=C(O)c1cn(C2CC2)c2c(F)c(N3CC(O)C3)c(F)cc2c1=O [Compound 8, 1-cyclopropyl-6,8-difluoro-7-(3-hydroxyazetidin-1-yl)-4-oxoquinoline-3-carboxylic acid] | < 100 nM |  |
| 16 µM (≈ 6.25 µg/mL) | NC(=S)N1CCN(c2cc3c(cc2F)c(=O)c(C(=O)O)cn3C2CC2)CC1 [Compound 7, 7-(4-carbamothioylpiperazin-1-yl)-1-cyclopropyl-6-fluoro-4-oxoquinoline-3-carboxylic acid] | 2200 nM | 16.67 ± 4.17 µM |
